Assay results as given in ChEMBL document CHEMBL1201862, “PubChem BioAssay data set” (2004).
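A five-concentration, 48-hour dose response in 96-well plates underlies each endpoint, interpolated linearly between surrounding concentrations. At the GI50, growth is halved.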 The source made the active and inactive calls. No stated cut-off is given here; in the data, active = GI50 up to about 1.1 µM and inactive = higher.

Legend:
Experiment in all cases: NCI anticancer screen, dose series, 48 h
DLD-1 = tested on: DLD-1
DMS-273 = tested on: DMS-273
HOP-18 = tested on: HOP-18
KM-20L2 = tested on: KM-20L2
LXFL 529 = tested on: LXFL 529
M19-MEL = tested on: M19-MEL
RXF 631 = tested on: RXF 631
SNB-78 = tested on: SNB-78
XF498 = tested on: XF498

SMILES | GI50 (DLD-1) | GI50 (DMS-273) | GI50 (HOP-18) | GI50 (KM-20L2) | GI50 (LXFL 529) | GI50 (M19-MEL) | GI50 (RXF 631) | GI50 (SNB-78) | GI50 (XF498)
Clc1ccc(C2=NN(c3ccccc3)C3c4cc(Br)ccc4OCC23)cc1 (configuration not stated) | > 100 µM (inactive) | > 100 µM (inactive) | > 100 µM (inactive) | > 100 µM (inactive) | 72.1 µM (inactive) | > 100 µM (inactive) | > 100 µM (inactive) | > 100 µM (inactive) | 66.2 µM (inactive)
N#CC(N)(C(=O)CCC(=O)Nc1cccc(Cl)c1)c1ccc(Cl)cc1 (configuration not stated) | > 100 µM (inactive) | > 100 µM (inactive) | > 100 µM (inactive) | > 100 µM (inactive) | > 100 µM (inactive) | > 100 µM (inactive) |  | > 100 µM (inactive) | > 100 µM (inactive)
CCOP(=O)(OCC)C1CC(C)OC1=O (configuration not stated) | > 100 µM (inactive) | > 100 µM (inactive) |  | > 100 µM (inactive) | > 100 µM (inactive) | > 100 µM (inactive) | > 100 µM (inactive) | > 100 µM (inactive) | > 100 µM (inactive)
CC1=NN(c2ccccc2)C(=O)C1=C1SCCCS1 | 21.5 µM (inactive) | 32.7 µM (inactive) | 20.8 µM (inactive) | 31.4 µM (inactive) | 34.6 µM (inactive) | 32.1 µM (inactive) |  | 66.2 µM (inactive) | 16.6 µM (inactive)
O=c1c2cccc3cccc(c4n1CCN=4)c32 | 52.5 µM (inactive) | 97.7 µM (inactive) | > 100 µM (inactive) | > 100 µM (inactive) | > 100 µM (inactive) | > 100 µM (inactive) |  | > 100 µM (inactive) | > 100 µM (inactive)
O=S1(=O)NN=C(NCc2ccc(Cl)c(Cl)c2)c2ccccc21 | 56.9 µM (inactive) | > 100 µM (inactive) | > 100 µM (inactive) | > 100 µM (inactive) | 42.2 µM (inactive) | > 100 µM (inactive) |  | 97.5 µM (inactive) | 
Cn1c(=O)nc2n(-c3ccc(Cl)c(C(F)(F)F)c3)c3ccccc3nc-2c1=O | 20.1 µM (inactive) | 32.1 µM (inactive) | > 100 µM (inactive) | 25.1 µM (inactive) | 76.9 µM (inactive) | 13.4 µM (inactive) |  | 53.6 µM (inactive) | 37.2 µM (inactive)
C[C@]12CCC3[C@@H](CCC45OC4C(=O)CC[C@]35C)C1Cc1cnn(-c3ccc(F)cc3)c1N2 (some centres not stated) |  | 18.8 µM (inactive) | 37 µM (inactive) | 22.6 µM (inactive) | 32.8 µM (inactive) | 34.3 µM (inactive) |  | 25.6 µM (inactive) | 31.8 µM (inactive)
CCC1(C)NN=c2s/c(=C/c3ccc(OC)cc3)c(=O)n2N1 (configuration not stated) | > 100 µM (inactive) | > 100 µM (inactive) |  | > 100 µM (inactive) | > 100 µM (inactive) |  |  | > 100 µM (inactive) | > 100 µM (inactive)
CCC12CCCC(=O)N1C(CO)C(c1ccccc1)O2 (configuration not stated) | > 100 µM (inactive) | > 100 µM (inactive) | > 100 µM (inactive) | > 100 µM (inactive) |  | > 100 µM (inactive) |  | > 100 µM (inactive) | > 100 µM (inactive)
CCCCCCCCCCCCN(O)C(=O)c1ccccc1 | 26.4 µM (inactive) |  | 62.1 µM (inactive) | 36.2 µM (inactive) | 30.5 µM (inactive) | 37.8 µM (inactive) |  |  | 21.6 µM (inactive)
CCCN(CCC)CCc1cc(C(C)=O)n(S(=O)(=O)c2ccc(C)cc2)c1 | > 100 µM (inactive) | > 100 µM (inactive) | > 100 µM (inactive) |  | > 100 µM (inactive) | > 100 µM (inactive) |  | > 100 µM (inactive) | 
COc1c(C(C)C)cc2c3c1OC(=O)[C@@]31CCCC(C)(C)C1CC2 (some centres not stated) | 69.8 µM (inactive) | 23.4 µM (inactive) |  | 30.4 µM (inactive) | 16.6 µM (inactive) | 23.6 µM (inactive) |  | 23.3 µM (inactive) | 
CC(C)(C)c1cc2ccc(C(N)=O)cc2c(=O)[nH]1 | > 100 µM (inactive) | > 100 µM (inactive) | > 100 µM (inactive) | > 100 µM (inactive) | > 100 µM (inactive) | > 100 µM (inactive) | > 100 µM (inactive) | > 100 µM (inactive) | 
O=C(N/N=C/c1cc(-c2ccccc2Cl)c(-c2ccccc2Cl)o1)c1ccncc1 | > 100 µM (inactive) |  |  | > 100 µM (inactive) | 96.6 µM (inactive) | > 100 µM (inactive) | > 100 µM (inactive) |  | > 100 µM (inactive)
COc1ccc(CC2=NCCc3cc(OC)c(OC)cc32)cc1Br | 19.1 µM (inactive) | 12.7 µM (inactive) | > 100 µM (inactive) | 4.11 µM (inactive) | 7.36 µM (inactive) | 27.5 µM (inactive) |  | 58.1 µM (inactive) | 22.8 µM (inactive)
CCOc1ccc2c(c1)[n+]([O-])c(-c1ccccc1)c(N)[n+]2[O-] | > 100 µM (inactive) | 77.1 µM (inactive) | 53.6 µM (inactive) | 59 µM (inactive) | 46.6 µM (inactive) | 62.4 µM (inactive) |  |  | > 100 µM (inactive)
COC(=O)/C(Cl)=C1/CC1COCc1ccccc1 (configuration not stated) | 20.4 µM (inactive) | 20.7 µM (inactive) |  | 41.4 µM (inactive) | 17.1 µM (inactive) | 33.3 µM (inactive) |  | 45.9 µM (inactive) | 26.4 µM (inactive)
Nc1ccc(C(=O)NN2C(=O)C(Cl)C2c2cccc([N+](=O)[O-])c2)cc1 (configuration not stated) | 17.9 µM (inactive) | 16 µM (inactive) |  | 25.3 µM (inactive) | 20 µM (inactive) | 19.8 µM (inactive) |  | 63.2 µM (inactive) | 13.2 µM (inactive)
CC(=O)Nc1ccc(C2CC(c3ccc([N+](=O)[O-])cc3)=Nc3ccccc3[S+]2[O-])cc1 (configuration not stated) | 15.9 µM (inactive) | 13.6 µM (inactive) | 27.2 µM (inactive) | 21.6 µM (inactive) | 16.7 µM (inactive) | 15.2 µM (inactive) | > 10 µM (inactive) |  | 24.2 µM (inactive)
COc1cccc2c1C(=O)c1c(O)c3c(c(O)c1C2=O)C[C@@](O)(C(=O)CO)C[C@@H]3OC1CC(N2CCOCC2C#N)C(O)C(C)O1 (some centres not stated) | 2.26e-05 µM (active) | 1.93e-05 µM (active) | 0.0025 µM (active) | 0.0025 µM (active) | 0.001 µM (active) |  | 8.24e-05 µM (active) | 0.0025 µM (active) | 
